Experimental data: patent US5321045A, “Method and composition for the treatment of imflammatory conditions using thiosulphinic acid derivatives” (Boehringer Mannheim GmbH, priority 1987, dated 1994)

Tests used:
[1] = system: thromboxane biosynthesis of thrombin-stimulated platelet-rich plasma; experiment: Inhibition of the thromboxane biosynthesis of thrombin-stimulated platelet-rich plasma; type: cell-based, human; details: 0.001 mg/ml to 1.0 mg/ml, 15 min
Experimental: The enzyme-inhibiting action of the compounds were determined in vitro; use of the mixture of compounds 1) and 2).
From a human donor was obtained platelet-rich plasma by the usual method and adjusted to a platelet count of […]. This plasma was incubated either with a solvent (1% dimethyl sulphoxide (DMSO) -physiological common salt solution) or with various concentrations of the compounds (s. Table II).
5 Minutes later, the platelets were stimulated with thrombin (1 or 10 International Units=I.U.) at 37° C. After 15 minutes, the reaction was stopped with ice-cold methanol (volume ratio 1:1), thereafter separated by 10 minutes centrifuging at 3000 U/min. (4° C.).

[2] = system: allergen-induced asthma bronchiale; experiment: Protective action in allergen-induced asthma bronchiale of guinea pigs (ovalbumin inhalation); type: in vivo; details: FIGS. 4-6; dosage as in 1a); ovalbumin one percent, twice
Experimental: 1. Investigation of the asthma-protective action of compounds in vivo. There was used a mixture of compound 1) (identical with formula III on p.13 of the German text) and compound 2) (identical with formula IV on p.13 of the German text). The ratio of 1): 2) amounted to about 1:2.
For the investigation of the asthma-protective action in vivo, corresponding experiments were carried out with guinea pigs (Dorsch W. et al., Pflugers Arch. 391, page 263 (1981).
9 guinea pigs were--was described under 1a)--corresponding to a randomised crossover protocol, either fed with the active component in olive oil or with the carrier olive oil alone. The dosage of the administered compound amounted to 20 mg./kg. body weight. 30 Minutes later, the animals inhaled twice, at an interval of 10 minutes, in each case for 20 seconds, a one percent ovalbumin solution, the substance to which they had been sensitised 3 weeks previously. The extent of the resulting bronchial obstruction was also determined whole body plethysmographically in 2 minute intervals for the period of twice 10 minutes (for the method see: Dorsch W, Walter O., Rosmanith J.: Continuous Recording of Intrapulmonary "Compressed Air" as a Sensitive Noninvasive Method of Measuring Branchial Obstruction in Guinea Pigs, Pflugers Arch. 391: 236-241 (1981)). […]

Row | Compound | maximum dosage-dependent suppression of the thromboxane B2 biosynthesis [1] [%] | Asthmatic reaction to the inhalation of an antigen [2]
1 | CS[S+](C)[O-] (stereo not shown) [compound 3, methylthiosulphinic acid methyl ester] | 61 | clearly weaken the asthmatic reaction
2 | [O-][S+](Sc1ccccc1)c1ccccc1 (stereo not shown) [compound 4, phenylthiosulphinic acid phenyl ester] | 76 | clearly weaken the asthmatic reaction
